From US12421254B2, “KRAS modulators and uses thereof” (Quanta Therapeutics, Inc., priority 2023, dated 2025)

Experiments:
[1] = molecular target: GST-tagged KRAS-G12D (2-169) (Homo sapiens, UniProt P01116, G12D); experiment: Nucleotide exchange assay (NEA), SOS-mediated, HTRF, KRAS G12D; assay type: biochemical; details: Table 4; IC50 extracted at 30 min; 20 nM SOScat; read-out: NEA G12D IC50
In short: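 SOS1cat-driven loading of fluorescent GTP-DY-647P1 (150 nM) onto GST-KRAS-G12D (2-169, 0.25 nM) read by time-resolved FRET; SOScat 20 nM, compound preincubated with KRAS 1 h at RT. Signal blanked to no-SOS reactions, normalized to DMSO; IC50 fitted from the 30-min read.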

[2] = molecular target: GST-tagged KRAS-G12V (2-169) (Homo sapiens, UniProt P01116, G12V); experiment: Nucleotide exchange assay (NEA), SOS-mediated, HTRF, KRAS G12V; assay type: biochemical; details: Table 4; IC50 extracted at 90 min; 80 nM SOS
Chain of GST-tagged KRAS-G12V (2-169) (P01116 2-169 isoform P01116-2 G12V): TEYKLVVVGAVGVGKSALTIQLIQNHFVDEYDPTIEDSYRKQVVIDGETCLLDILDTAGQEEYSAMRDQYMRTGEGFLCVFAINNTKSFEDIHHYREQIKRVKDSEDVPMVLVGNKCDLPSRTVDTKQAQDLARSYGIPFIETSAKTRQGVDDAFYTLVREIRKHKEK
In short: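 Exchange onto fluorescent GTP-DY-647P1 (150 nM final) catalysed by 80 nM SOS1cat was followed by Tb-anti-GST HTRF at RT for up to 90 min, after 1 h compound pre-incubation with 0.25 nM GST-tagged KRAS-G12V (2-169), pH 7.3. DMSO = 0%, no-SOS blank = 100%; 4-parameter IC50 taken at 90 min.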

[3] = system: phospho-ERK in GP2D (KRAS-G12D) cells; experiment: pERK In Cell Western (ICW) assay (Method B), GP2D; assay type: cell-based
Method: pERK ICW is a high throughput screening assay to evaluate the cellular potency of mutant KRAS small molecule inhibitors. KRAS mutant cell lines AGS, GP2D (KRAS-G12D) as well as SW620 (KRAS-G12V) were purchased from ATCC and maintained respectively in RPMI/DMEM/RPMI medium supplemented with 10% fetal bovine serum.
Cells grown in exponential phase were trypsinized, resuspended in fresh media, and viable cells were counted using a cell counter with Trypan Blue (BioRad TC20). Cells were seeded into 384-well plate (Greiner 781091) at density of 5,000 cells/well for AGS and 10,000 cells/well for GP2D/SW620 and allowed to grow overnight in a 37° C. CO2 incubator. The next day, compounds were dispensed into wells with a ½ log, 9-point serial dilution using a Tecan D300e dispenser and incubated for 3 hours in a 37° C. CO2 incubator. Cells were then fixed with paraformaldehyde (Electron Microscopy Sciences, 15710, 4% final concentration) for 30 min, permeabilized with wash buffer (1×PBS+0.1% Triton X-100) for 30 min and blocked with Odyssey blocking buffer (Li—COR 927-70001) for 1 hour, all at room temperature (RT). Phospho-ERK antibody (CST 4370L) was diluted 1:500 in Odyssey T20 (PBS) antibody diluent (Li—COR 927-75001) and incubated with cells overnight at 4° C. The next day, plates were washed 5× with wash buffer, incubated with IRDye 800 CW, Goat anti-Rabbit secondary antibody (Li—COR 926-32211, 1:800) and DRAQ5 (CST 4084L, 1:5,000) diluted in Odyssey T20 (PBS) antibody diluent for 1 hour, washed 5×, and imaged on an Odyssey CLx imaging system.
For data analysis, signal intensities from 800 (phosphor-ERK) and 700 (DRAQ5) channels were extracted, and phospho-ERK signals were normalized to DRAQ5 signals for each well and percent of blank control values were computed. Data were then imported into Graphpad Prism to compute half-maximal inhibitory concentrations (IC50) using a 4-parameter variable slope model. Z-factor for each plate was computed from signals derived from wells treated with either DMSO or 5 μM of control compound. AGS pERK ICW (Method B) IC50 (uM) values of selected compounds are depicted in Table 2 with compounds having a value ≥0.001 uM to 0.01 uM as ++++; ≥0.01 uM to 0.1 uM as +++; ≥0.1 uM to 1 uM as ++; ≥1 uM to 10 uM as + and ≥10 uM as NA.

[4] = system: phospho-ERK in SW620 (KRAS-G12V) cells; experiment: pERK In Cell Western (ICW) assay (Method B), SW620; assay type: cell-based
In short: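 Per well, infrared pERK immunofluorescence was divided by DRAQ5 nuclear signal following 3 h treatment with a 9-point, ½-log compound series; seeding was 5,000 (AGS) or 10,000 (GP2D, SW620) cells per well. Percent-of-blank data were fitted to a four-parameter model for IC50.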

[5] = Homo sapiens, SW-620, 3 h, Table 4

Chain of GST-tagged KRAS-G12D (2-169) (P01116 2-169 isoform P01116-2 G12D): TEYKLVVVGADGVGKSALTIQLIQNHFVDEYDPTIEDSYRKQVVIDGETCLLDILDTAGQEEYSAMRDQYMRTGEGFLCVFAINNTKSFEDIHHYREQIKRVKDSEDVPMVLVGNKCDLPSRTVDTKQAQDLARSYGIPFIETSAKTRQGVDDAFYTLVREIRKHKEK

SMILES | IC50 [1] [nM] | IC50 [2] [nM] | IC50 ([3]; Table 4, 3 hours) [nM] | IC50 ([4]; Table 4, 3 hours) [nM] | IC50 [4, 5] [nM] | IC50 ([3]; GP2d, 3 h, Table 4) [nM]
N#Cc1c(N)sc2c1C1(CC2)CN(c2nc(OC[C@@]34CCCN3C[C@H](F)C4)nc(N3CCOCC(C#N)C3)n2)C1 (single isomer, unassigned) [Compound 91B, (6*)-4-[4-(2-amino-3-cyano-spiro[5,6-dihydrocyclopenta[b]thiophene-4,3′-azetidine]-1′-yl)-6-[[(2R,8S)-2-fluoro-1,2,3,5,6,7-hexahydropyrrolizin-8-yl]methoxy]-1,3,5-triazin-2-yl]-1,4-oxazepane-6-carbonitrile] | < 10 | < 10 | 100 to 1000 | 10 to 100 | – | –
CC(c1cccnc1N)N(C)c1nc(OC[C@@]23CCCN2C[C@H](F)C3)nc(N2CC3(CCc4sc(N)c(C#N)c43)C2)n1 (single isomer, unassigned) [Compound 100A, 2-amino-1′-[4-[[(1*)-1-(2-amino-3-pyridyl)ethyl]-methyl-amino]-6-[[(2R,8S)-2-fluoro-1,2,3,5,6,7-hexahydropyrrolizin-8-yl]methoxy]-1,3,5-triazin-2-yl]spiro[5,6-dihydrocyclopenta[b]thiophene-4,3′-azetidine]-3-carbonitrile] | < 10 | < 10 | 10 to 100 | – | < 10 | –
CC(c1cccnc1N)N(C)c1nc(OC[C@@]23CCCN2C[C@H](F)C3)nc(N2CC3(CCc4sc(N)c(C#N)c43)C2)n1 (single isomer, unassigned) [Compound 100B, 2-amino-1′-[4-[[(1*)-1-(2-amino-3-pyridyl)ethyl]-methyl-amino]-6-[[(2R,8S)-2-fluoro-1,2,3,5,6,7-hexahydropyrrolizin-8-yl]methoxy]-1,3,5-triazin-2-yl]spiro[5,6-dihydrocyclopenta[b]thiophene-4,3′-azetidine]-3-carbonitrile] | 10 to 100 | < 10 | 100 to 1000 | 10 to 100 | – | –
CC(c1nccnc1N)N(C)c1nc(OC[C@@]23CCCN2C[C@H](F)C3)nc(N2CC3(CCc4sc(N)c(C#N)c43)C2)n1 (single isomer, unassigned) [Compound 116A, 2-amino-1′-[4-[[(1*)-1-(3-aminopyrazin-2-yl)ethyl]-methyl-amino]-6-[[(2R,8S)-2-fluoro-1,2,3,5,6,7-hexahydropyrrolizin-8-yl]methoxy]-1,3,5-triazin-2-yl]spiro[5,6-dihydrocyclopenta[b]thiophene-4,3′-azetidine]-3-carbonitrile] | < 10 | < 10 | – | – | 10 to 100 | 10 to 100
CC(c1cccnc1N)N(C)c1nc(OC[C@@]23CCCN2C[C@H](F)C3)nc(N2CC3(C2)SCc2sc(N)c(C#N)c23)n1 (single isomer, unassigned) [Compound 120A, 2-amino-1′-[4-[[(1*)-1-(2-amino-3-pyridyl)ethyl]-methyl-amino]-6-[[(2R,8S)-2-fluoro-1,2,3,5,6,7-hexahydropyrrolizin-8-yl]methoxy]-1,3,5-triazin-2-yl]spiro[6H-thieno[3,4-b]thiophene-4,3′-azetidine]-3-carbonitrile] | < 10 | < 10 | – | – | < 10 | < 10
CC(c1cccnc1N)N(C)c1nc(OC[C@@]23CCCN2C[C@H](F)C3)nc(N2CC3(C2)SCc2sc(N)c(C#N)c23)n1 (single isomer, unassigned) [Compound 120B, 2-amino-1′-[4-[[(1*)-1-(2-amino-3-pyridyl)ethyl]-methyl-amino]-6-[[(2R,8S)-2-fluoro-1,2,3,5,6,7-hexahydropyrrolizin-8-yl]methoxy]-1,3,5-triazin-2-yl]spiro[6H-thieno[3,4-b]thiophene-4,3′-azetidine]-3-carbonitrile] | < 10 | < 10 | 10 to 100 | 10 to 100 | – | –
CC(c1cccnc1N)N(CCO)c1nc(OC[C@@]23CCCN2C[C@H](F)C3)nc(N2CC3(CCc4sc(N)c(C#N)c43)C2)n1 (single isomer, unassigned) [Compound 122A, 2-amino-1′-[4-[[(1*)-1-(2-amino-3-pyridyl)ethyl]-(2-hydroxyethyl)amino]-6-[[(2R,8S)-2-fluoro-1,2,3,5,6,7-hexahydropyrrolizin-8-yl]methoxy]-1,3,5-triazin-2-yl]spiro[5,6-dihydrocyclopenta[b]thiophene-4,3′-azetidine]-3-carbonitrile] | < 10 | < 10 | – | – | 10 to 100 | < 10
CC(c1cccnc1N)N(CCO)c1nc(OC[C@@]23CCCN2C[C@H](F)C3)nc(N2CC3(CCc4sc(N)c(C#N)c43)C2)n1 (single isomer, unassigned) [Compound 122B, 2-amino-1′-[4-[[(1*)-1-(2-amino-3-pyridyl)ethyl]-(2-hydroxyethyl)amino]-6-[[(2R,8S)-2-fluoro-1,2,3,5,6,7-hexahydropyrrolizin-8-yl]methoxy]-1,3,5-triazin-2-yl]spiro[5,6-dihydrocyclopenta[b]thiophene-4,3′-azetidine]-3-carbonitrile] | < 10 | < 10 | 10 to 100 | 10 to 100 | – | –
CCN(c1nc(OC[C@@]23CCCN2C[C@H](F)C3)nc(N2CC3(C2)SCc2sc(N)c(C#N)c23)n1)C(C)c1nccnc1N (single isomer, unassigned) [Compound 168A, 2-amino-1′-[4-[[(1*)-1-(3-aminopyrazin-2-yl)ethyl]-ethyl-amino]-6-[[(2R,8S)-2-fluoro-1,2,3,5,6,7-hexahydropyrrolizin-8-yl]methoxy]-1,3,5-triazin-2-yl]spiro[6H-thieno[3,4-b]thiophene-4,3′-azetidine]-3-carbonitrile] | < 10 | < 10 | < 10 | – | < 10 | –
CCN(c1nc(OC[C@@]23CCCN2C[C@H](F)C3)nc(N2CC3(C2)SCc2sc(N)c(C#N)c23)n1)C(C)c1nccnc1N (single isomer, unassigned) [Compound 168B, 2-amino-1′-[4-[[(1*)-1-(3-aminopyrazin-2-yl)ethyl]-ethyl-amino]-6-[[(2R,8S)-2-fluoro-1,2,3,5,6,7-hexahydropyrrolizin-8-yl]methoxy]-1,3,5-triazin-2-yl]spiro[6H-thieno[3,4-b]thiophene-4,3′-azetidine]-3-carbonitrile] | 10 to 100 | < 10 | 100 to 1000 | 10 to 100 | – | –
CC(c1nsnc1N)N(C)c1nc(OC[C@@]23CCCN2C[C@H](F)C3)nc(N2CC3(C2)SCc2sc(N)c(C#N)c23)n1 (single isomer, unassigned) [Compound 184A, 2-amino-1′-[4-[[(1*)-1-(4-amino-1,2,5-thiadiazol-3-yl)ethyl]-methyl-amino]-6-[[(2R,8S)-2-fluoro-1,2,3,5,6,7-hexahydropyrrolizin-8-yl]methoxy]-1,3,5-triazin-2-yl]spiro[6H-thieno[2,3-c]thiophene-4,3′-azetidine]-3-carbonitrile] | < 10 | < 10 | – | – | < 10 | 10 to 100
